67 compounds from PubChem BioAssay AID624491 (Broad Institute, 2012) can be followed below.

The structures appear in SMILES notation.

For the assay, the system named is D54 ERlucT glycosylation luciferase reporter, luminescence, 24 h. As to the kind of experiment: blockers of NLG process in reporter cells – D54 ERlucT cells, luminescence, cherry-picks, dose response (AID 624491).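 Also: signal gain reflects blocked N-linked glycosylation of a luciferase reporter; actives raise luciferase signal so AC26 marks activators of the reporter.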
For `CCOC(=O)Nc1nc2ccc(Cn3cccc3)cc2[nH]1`, the AC26 was 674 nM.

`O=C(N/N=C/c1c[nH]c2ccccc12)C1COc2ccccc2O1` (configuration not stated): the AC26 is 1310 nM.

Regarding `c1ccc(-n2nnnc2-c2cccc3ccccc23)cc1`, the AC26 was 2390 nM.

For `COC(=O)c1cn(C(=O)c2cccc3ccccc23)c2ccccc12`, the AC26 is 928 nM.

Regarding `Cc1ccc(C)c(OCC(O)CN2CCN(CCN3C(=O)c4cccc5cccc(c45)C3=O)CC2)c1` (configuration not stated), the AC26 was 755 nM.

With `CC1(C(=O)NCc2cccs2)Cc2c(-c3ccc4c(c3)OCO4)ccnc2O1` (configuration not stated), the AC26 is 2060 nM.

On to `CN(C)c1ccc(-c2ccnc3c2CC(C)(C(=O)NCc2ccccc2)O3)cc1` (configuration not stated), for which the AC26 was 5530 nM.

Regarding `CN1CCN(C(c2ccc(Cl)cc2)c2cc(Cl)c3cccnc3c2O)CC1` (configuration not stated), the AC26 was 4040 nM.

For the compound `Cc1cc(C)c2sc(NC(=O)c3ccc([N+](=O)[O-])o3)nc2c1`, the AC26 was 6640 nM.

On to `COc1cc(C(=O)c2cocc2C(=O)c2ccc3c(c2)OCO3)cc(OC)c1OC`, for which the AC26 was 111 nM.

In the case of `CC(C)(C)S(=O)(=O)N1C[C@@H]2CC/C=C\C/C(c3ccccc3)=C\2[C@H]1CCO`, the AC26 is 1050 nM.

Turning to `O=c1[nH]c(O)c(/C=C2/C=CC(c3cc(Cl)ccc3Cl)=N2)c(=O)[nH]1`, the AC26 is 2610 nM.

Turning to `CCn1c(=O)c2cc(C(=O)NCCCOC)sc2c2ccccc21`, the AC26 was 2460 nM.

As to `Cc1ccc2c(c1)C(=O)N1[C@H]3c4cc(Cl)ccc4OC[C@@H]3[C@H](c3ccccc3)[C@]1(C)C(=O)N2`, the AC26 was 1260 nM.

Consider `CNc1ccc(Br)cc(C(=O)/C=C/c2ccc(Cl)cc2Cl)c1=O`, for which the AC26 was 8890 nM.

Consider `COc1ccc2nc(C)cc(Nc3ccc(N4CCN(C)CC4)cc3)c2c1`, for which the AC26 was 694 nM.

As to `COc1cc(NC(=O)c2noc(C)c2[N+](=O)[O-])c(OC)cc1Cl`, the AC26 is 632 nM.

Regarding `COc1ccc(CCn2c(=N)c(C(=O)NCC3CCCO3)cc3c(=O)n4cccc(C)c4nc32)cc1` (configuration not stated), the AC26 is 575 nM.

For the compound `C/C(=N\O)C(=O)C(CN1CCCCC1)CN1CCCCC1`, the AC26 was 1500 nM.

Consider `COc1cc2c(C#CCCO)c(-c3ccsc3)oc(=O)c2cc1OC`, for which the AC26 was 226 nM.

With `CCc1ccc(Oc2coc3cc(OCC(=O)Nc4cc(C)ccc4C)ccc3c2=O)cc1`, the AC26 is 4860 nM.

Consider `Cn1c(=O)n(C)c2cc(S(=O)(=O)N3CCCc4ccccc43)ccc21`, for which the AC26 was 3550 nM.

On to `CCc1ccc(C(=O)Nc2ccc3c(c2)n(C)c(=O)n3C)cc1`, for which the AC26 is 6220 nM.

As to `CC(C)c1ccc(/C=N/NC(=O)c2ccccc2Cl)cc1`, the AC26 was 1910 nM.

For the compound `O=C(C[C@@H]1C[C@H]2c3cc(NC(=O)c4cccnc4)ccc3O[C@H]2[C@H](CO)O1)NCc1ccc(Oc2ccccc2)cc1`, the AC26 is 8780 nM.

In the case of `O=C(NCCN1C(=O)S/C(=C\c2ccccc2Cl)C1=O)C1=COCCO1`, the AC26 is 7850 nM.

For `O=C(C=Cc1ccccc1O)c1ccccc1O`, the AC26 was 2850 nM.

As to `Cn1cc(C(=O)N/N=C/C(Br)=C/c2ccccc2)ccc1=O`, the AC26 is 2850 nM.

As for `COc1ccc(Nc2oc(-c3ccc(Cl)cc3)nc2C#N)cc1`, the AC26 was 348 nM.

As for `COc1ccc2noc3c2c1C(=O)c1ccccc1-3`, the AC26 was 441 nM.

With `Cn1c(=O)n(C)c2cc(C(=O)Nc3ccc4c(c3)OCO4)ccc21`, the AC26 is 1740 nM.

On to `Nc1ccc2nc(-c3ccccc3)c(-c3ccccc3)nc2c1`, for which the AC26 is 1480 nM.

For the compound `Cc1ccc(-c2nn3c(C)nnc3c3ccccc23)cc1S(=O)(=O)NC(C)(C)CO`, the AC26 was 826 nM.

`COc1cc(-c2nc(-c3ccccc3)c(-c3cccs3)[nH]2)cc(OC)c1OC`: the AC26 is 3280 nM.

For the compound `CN1CCN(CC(=O)Nc2cc(N(C)C)nc3ccccc23)CC1`, the AC26 is 6650 nM.

Regarding `Cc1ccc(C(=O)c2cc([N+](=O)[O-])ccc2N2CCOCC2)cc1C`, the AC26 was 168 nM.

Turning to `COc1cc2c(C#N)c(N3CCc4ccccc4C3)nc(N)c2c(N)n1`, the AC26 is 6220 nM.

As for `COCCN(C(=O)CCl)C(C(=O)NC1CCCCC1)c1ccccc1C` (configuration not stated), the AC26 is 3340 nM.

For `COc1ccc(NC(=O)c2cc3c(=O)n(C)c4ccccc4c3n2C)cc1OC`, the AC26 is 2940 nM.

Regarding `C=CCN1c2ccccc2[C@]23C[C@@H](C(=O)OC)N(C(=O)c4ccc(Br)cc4)C2=NC(C(=O)OC)=C(C(=O)OC)[C@H]13`, the AC26 was 6060 nM.

For `CN(C)S(=O)(=O)c1ccc(N2CCCC2)c(C(=O)Nc2nc3ccccc3s2)c1`, the AC26 is 545 nM.

Turning to `CCCNS(=O)(=O)c1cccc(C(=O)OCc2cc(=O)oc3cc(OC)ccc23)c1`, the AC26 was 834 nM.

As to `O=C(COC(=O)c1cccc(Br)c1)Nc1cccc2c1C(=O)c1ccccc1C2=O`, the AC26 is 4290 nM.

For the compound `COc1cc2c(cc1OC)C(=O)N1[C@H]3c4cc(Cl)ccc4OC[C@@H]3[C@H](c3ccccc3)[C@]1(C)C(=O)N2`, the AC26 was 609 nM.

As for `COc1ccccc1-n1cnc2cc(NCc3cccs3)ccc21`, the AC26 was 141 nM.

`CN(C)C(CNC(=O)CSc1nc2sc3c(c2c(=O)n1C)CCCC3)c1ccccc1` (configuration not stated): the AC26 was 387 nM.

On to `COc1ccc(NC(=O)C2(C)Cc3c(-c4cccc(C(N)=O)c4)ccnc3O2)cn1` (configuration not stated), for which the AC26 was 10700 nM.

In the case of `CC(C)(C)c1ccc(OCc2ccc(C(=O)Nc3cccnc3)o2)cc1`, the AC26 was 7560 nM.

In the case of `CCNCCNc1ccc([N+](=O)[O-])c2cccnc12`, the AC26 was 7750 nM.

`CC(=O)Nc1cccc(-c2ccnc3c2CC(C(=O)NCc2cccc(Cl)c2)O3)c1` (configuration not stated): the AC26 was 9220 nM.

Regarding `Cc1ccc(C(=O)N2CCN(Cc3ccccc3)CC2)cc1S(=O)(=O)N1CCOCC1`, the AC26 is 1670 nM.

As for `O=C(NCCN1C(=O)S/C(=C\c2ccccc2F)C1=O)C1=COCCO1`, the AC26 was 52.9 nM.

In the case of `O=C1N[C@H]2CC=C[C@H]2N(Cc2cccs2)c2ccccc21`, the AC26 is 895 nM.

Take `COc1cc(C2c3[nH]c4ccccc4c3CC3COC(=O)N32)cc(OC)c1O` (configuration not stated): the AC26 is 780 nM.

Take `CCCCOc1ccccc1C1CC(=O)NC2=C1C(=O)CCC2` (configuration not stated): the AC26 is 1320 nM.

With `CCN(CC)CCCNc1nc2cc(OC)c(OC)cc2c2nc(-c3ccccc3)nn12`, the AC26 was 811 nM.

For the compound `Cc1ccc(S(=O)(=O)C(NC(=O)c2ccccc2)=C(Cl)Cl)cc1`, the AC26 was 4090 nM.

With `COc1ccc(Sc2nnc(Cc3ccccc3)c3ccccc23)cc1`, the AC26 was 2880 nM.

Regarding `CN(C)c1ccc(C(C[N+](=O)[O-])c2c(N)n(C)c(=O)n(C)c2=O)c(F)c1C#N` (configuration not stated), the AC26 is 3300 nM.

In the case of `O=C(N/N=C/c1ccco1)c1ccccc1OCc1ccccc1Cl`, the AC26 was 1010 nM.

With `CC[C@H](C)[C@H](NC(=O)c1ccc(Cl)cc1)C(=O)OCC(=O)c1ccc2c(c1)NC(=O)CO2`, the AC26 was 6470 nM.

Turning to `Cc1[nH]c2ccccc2c1/C=N/NC(=O)c1cc(-c2ccncc2)nc2ccccc12`, the AC26 is 4040 nM.

Consider `COc1ccc(Nc2nc(-c3sc(C)nc3C)cs2)c(OC)c1`, for which the AC26 was 1240 nM.

Regarding `CCN(CC)CCNC(=O)c1cc2c(-c3ccc(Cl)cc3)nn(C)c2s1`, the AC26 is 3330 nM.

Consider `CNc1ccc(/C=C/C(=O)c2cccc3ccccc23)cc1[N+](=O)[O-]`, for which the AC26 was 2810 nM.

On to `Nc1nc(CN2CCN(Cc3ccccc3)CC2)nc(Nc2ccc3c(c2)OCCO3)n1`, for which the AC26 was 699 nM.

Turning to `CCCCCCn1c(=O)n2n(c1=O)[C@@H]1CN(S(=O)(=O)c3ccc(C)cc3)C[C@]1(O)[C@@H](OC(=O)NCc1ccccc1)C2`, the AC26 is 763 nM.
